According to patent US6596718B1, “7-Morpholin-4yl-benzothiazole amide derivatives” (Hoffmann-La Roche Inc., priority 2001, dated 2003):

Row | SMILES | melting point
1 | COc1ccc(N2CCOCC2)c2sc(C(=O)NC[C@H]3CCCC[C@H]3O)nc12 (stereo in doubt) [Example 42, 4-Methoxy-7-morpholin-4-yl-benzothiazole-2-carboxylic acid (2-hydroxy-cyclohexylmethyl)-amide] | 178 to 180 °C
2 | COc1ccc(N2CCOCC2)c2sc(C(=O)NC[C@@H]3CCCC[C@H]3O)nc12 (stereo in doubt) [Example 43, 4-Methoxy-7-morpholin-4-yl-benzothiazole-2-carboxylic acid (2-hydroxy-cyclohexylmethyl)-amide] | 133 to 135 °C
3 | COc1ccc(N2CCOCC2)c2sc(C(=O)N[C@H]3CCCC[C@@H]3O)nc12 (stereo in doubt) [Example 72, 4-Methoxy-7-morpholin-4-yl-benzothiazole-2-carboxylic acid (2-hydroxy-cyclohexyl)-amide] | 110 to 115 °C
4 | COc1ccc(N2CCOCC2)c2sc(C(=O)Nc3ccc(F)cc3)nc12 [Example 2, 4-Methoxy-7-morpholin-4-yl-benzothiazole-2-carboxylic Acid (4-Fluoro-phenyl)-amide] | 206 to 208 °C
5 | COc1ccc(N2CCOCC2)c2sc(C(=O)NCc3ccccc3)nc12 [Example 3, 4-Methoxy-7-morpholin-4-yl-benzothiazole-2-carboxylic Acid Benzylamide] | 156 to 158 °C
6 | COc1ccc(N2CCOCC2)c2sc(C(=O)Nc3ccccc3)nc12 [Example 4, 4-Methoxy-7-morpholin-4-yl-benzothiazole-2-carboxylic acid phenylamide] | 190 to 191 °C
7 | COc1ccc(N2CCOCC2)c2sc(C(=O)NC3CCCCC3)nc12 [Example 5, 4-Methoxy-7-morpholin-4-yl-benzothiazole-2-carboxylic acid cyclohexylamide] | 146 to 147 °C
8 | COc1ccc(N2CCOCC2)c2sc(C(=O)NCc3ccc(Cl)cc3)nc12 [Example 7, 4-Methoxy-7-morpholin-4-yl-benzothiazole-2-carboxylic acid 4-chloro-benzylamide] | 175 to 176 °C
9 | COc1ccc(N2CCOCC2)c2sc(C(=O)NC3CCCC3)nc12 [Example 8, 4-Methoxy-7-morpholin-4-yl-benzothiazole-2-carboxylic acid cyclopentylamide] | 174 to 175 °C
10 | COc1ccc(NC(=O)c2nc3c(OC)ccc(N4CCOCC4)c3s2)cc1 [Example 10, 4-Methoxy-7-morpholin-4-yl-benzothiazole-2-carboxylic acid (4-methoxy-phenyl)-amide] | 148 °C
11 | COc1cccc(NC(=O)c2nc3c(OC)ccc(N4CCOCC4)c3s2)c1 [Example 11, 4-Methoxy-7-morpholin-4-yl-benzothiazole-2-carboxylic acid (3-methoxy-phenyl)-amide] | 160 °C
12 | COc1ccccc1NC(=O)c1nc2c(OC)ccc(N3CCOCC3)c2s1 [Example 12, 4-Methoxy-7-morpholin-4-yl-benzothiazole-2-carboxylic acid (2-methoxy-phenyl)-amide] | 191 °C
13 | COc1ccc(N2CCOCC2)c2sc(C(=O)NCc3ccc4c(c3)OCO4)nc12 [Example 14, 4-Methoxy-7-morpholin-4-yl-benzothiazole-2-carboxylic acid (benzo[1,3]dioxol-5-ylmethyl)-amide] | 190 to 193 °C
14 | COc1ccc(N2CCOCC2)c2sc(C(=O)NCc3cccnc3)nc12 [Example 18, 4-Methoxy-7-morpholin-4-yl-benzothiazole-2-carboxylic acid (pyridin-3-ylmethyl)-amide] | 181 to 184 °C
15 | COc1ccc(N2CCOCC2)c2sc(C(=O)Nc3ccccn3)nc12 [Example 19, 4-Methoxy-7-morpholin-4-yl-benzothiazole-2-carboxylic acid pyridin-2-ylamide] | 177 to 181 °C
16 | COc1ccc(N2CCOCC2)c2sc(C(=O)NCc3cccc(F)c3)nc12 [Example 20, 4-Methoxy-7-morpholin-4-yl-benzothiazole-2-carboxylic acid 3-fluoro-benzylamide] | 152 to 153 °C
17 | COc1ccc(N2CCOCC2)c2sc(C(=O)NCc3ccccc3F)nc12 [Example 21, 4-Methoxy-7-morpholin-4-yl-benzothiazole-2-carboxylic acid 2-fluoro-benzylamide] | 133 to 134 °C
18 | COc1ccc(N2CCOCC2)c2sc(C(=O)NCc3cccs3)nc12 [Example 23, 4-Methoxy-7-morpholin-4-yl-benzothiazole-2-carboxylic acid (thiophen-2-ylmethyl)-amide] | 174 to 175 °C
19 | COc1ccc(N2CCOCC2)c2sc(C(=O)NCC3CC3)nc12 [Example 24, 4-Methoxy-7-morpholin-4-yl-benzothiazole-2-carboxylic acid cyclopropylmethyl-amide] | 152 to 153 °C
20 | COc1ccc(CNC(=O)c2nc3c(OC)ccc(N4CCOCC4)c3s2)cc1 [Example 26, 4-Methoxy-7-morpholin-4-yl-benzothiazole-2-carboxylic acid 4-methoxy-benzylamide] | 164 to 168 °C

Row | SMILES | melting point
21 | COc1cccc(CNC(=O)c2nc3c(OC)ccc(N4CCOCC4)c3s2)c1 [Example 27, 4-Methoxy-7-morpholin-4-yl-benzothiazole-2-carboxylic acid 3-methoxy-benzylamide] | 140 to 144 °C
22 | COc1ccc(N2CCOCC2)c2sc(C(=O)NCCNC(=O)c3ccc(Cl)cc3)nc12 [Example 28, 4-Methoxy-7-morpholin-4-yl-benzothiazole-2-carboxylic acid [2-(4-chloro-benzoylamino)-ethyl]-amide] | 237 to 240 °C
23 | COc1ccc(N2CCOCC2)c2sc(C(=O)NCCN3Cc4ccccc4C3=O)nc12 [Example 29, 4-Methoxy-7-morpholin-4-yl benzothiazole-2-carboxylic acid [2-(1-oxo-1,3-dihydro-isoindol-2-yl)-ethyl]-amide] | 199 to 205 °C
24 | COc1ccc(N2CCOCC2)c2sc(C(=O)NCC3(c4ccccc4)CCOCC3)nc12 [Example 30, 4-Methoxy-7-morpholin-4-yl-benzothiazole-2-carboxylic acid (4-phenyl-tetrahydro-pyran-4-ylmethyl)-amide] | 144 to 148 °C
25 | COc1ccc(N2CCOCC2)c2sc(C(=O)NCc3ccncc3)nc12 [Example 31, 4-Methoxy-7-morpholin-4-yl-benzothiazole-2-carboxylic acid (pyridin-4-ylmethyl)-amide] | 207 to 209 °C
26 | COc1ccc(N2CCOCC2)c2sc(C(=O)NCCCN3C(=O)c4ccccc4C3=O)nc12 [Example 32, 4-Methoxy-7-morpholin-4-yl-benzothiazole-2-carboxylic acid [3-(1,3-dioxo-1,3-dihydro-isoindol-2-yl)-propyl]-amide] | 200 to 202 °C
27 | COc1ccc(N2CCOCC2)c2sc(C(=O)NCCCCN3C(=O)c4ccccc4C3=O)nc12 [Example 33, 4-Methoxy-7-morpholin-4-yl-benzothiazole-2-carboxylic acid [4-(1,3-dioxo-1,3-dihydro-isoindol-2-yl)-butyl]-amide] | 114 to 118 °C
28 | COc1ccc(N2CCOCC2)c2sc(C(=O)NCCN3C(=O)c4ccccc4C3=O)nc12 [Example 34, 4-Methoxy-7-morpholin-4-yl-benzothiazole-2-carboxylic acid [2-(1,3-dioxo-1,3-dihydro-isoindol-2-yl)-ethyl]-amide] | 231 to 233 °C
29 | COc1ccc(N2CCOCC2)c2sc(C(=O)NCC3CCCCC3)nc12 [Example 35, 4-Methoxy-7-morpholin-4-yl-benzothiazole-2-carboxylic acid cyclohexylmethyl-amide] | 150 to 151 °C
30 | COc1ccc(N2CCOCC2)c2sc(C(=O)NCC3Cc4ccccc4C(=O)N3)nc12 (stereo not drawn) [Example 36, 4-Methoxy-7-morpholin-4-yl-benzothiazole-2-carboxylic acid (1-oxo-1,2,3,4-tetrahydro-isoquinolin-3-ylmethyl)-amide] | 152 to 155 °C
31 | COc1ccccc1C(=O)NCCNC(=O)c1nc2c(OC)ccc(N3CCOCC3)c2s1 [Example 37, 4-Methoxy-7-morpholin-4-yl-benzothiazole-2-carboxylic acid [2-(2-methoxy-benzoylamino)-ethyl]-amide] | 180 to 183 °C
32 | COc1ccc(N2CCOCC2)c2sc(C(=O)NCCc3ccccn3)nc12 [Example 38, 4-Methoxy-7-morpholin-4-yl-benzothiazole-2-carboxylic acid (2-pyridin-2-yl-ethyl)-amide] | 184 to 185 °C
33 | COc1ccc(N2CCOCC2)c2sc(C(=O)NCC(=O)c3ccccc3)nc12 [Example 39, 4-Methoxy-7-morpholin-4-yl-benzothiazole-2-carboxylic acid (2-oxo-2-phenyl-ethyl)-amide] | 197 to 200 °C
34 | COc1ccc(N2CCOCC2)c2sc(C(=O)NCCCc3ccccc3)nc12 [Example 40, 4-Methoxy-7-morpholin-4-yl-benzothiazole-2-carboxylic acid (3-phenyl-propyl)-amide] | 147 °C
35 | COc1ccc(N2CCOCC2)c2sc(C(=O)NCC3CCCO3)nc12 (stereo not drawn) [Example 41, 4-Methoxy-7-morpholin-4-yl-benzothiazole-2-carboxylic acid (tetrahydro-furan-2-ylmethyl)-amide] | 171 to 172 °C
36 | COc1ccc(N2CCOCC2)c2sc(C(=O)NNC(=O)c3cccnc3)nc12 [Example 44, Nicotinic acid N′-(4-methoxy-7-morpholin-4-yl-benzothiazole-2-carbonyl)-hydrazide] | 222 to 224 °C
37 | COc1ccc(N2CCOCC2)c2sc(C(=O)NNC(=O)c3ccncc3)nc12 [Example 45, Isonicotinic acid N′-(4-methoxy-7-morpholin-4-yl-benzothiazole-2-carbonyl)-hydrazide] | 171 to 174 °C
38 | COc1ccc(N2CCOCC2)c2sc(C(=O)NNC(=O)c3ccccc3)nc12 [Example 46, 4-Methoxy-7-morpholin-4-yl-benzothiazole-2-carboxylic acid N′-benzoyl-hydrazide] | > 260 °C
39 | COc1ccc(N2CCOCC2)c2sc(C(=O)NC(c3ccccc3)c3ccccc3)nc12 [Example 47, 4-Methoxy-7-morpholin-4-yl-benzothiazole-2-carboxylic acid benzhydryl-amide] | 166 to 168 °C
